Measurements published in patent publication US11167006B2 (Shanghai Tianci Life Science Development Co., Ltd., priority 2016, dated 2021).
Square brackets hold non-standard residues; d marks the D form. Ends that are not written are not given here.

Tests used:
[1] = system: movement activity of mice; experiment: Movement activity, open field experiment; type: in vivo, mouse; details: subcutaneous 10 mg/kg
Procedure: The movement activity of the mice was tested by open field experiments. The experimental device is consisted of a 50×50×50 cm topless black plexiglass box and a movement monitoring system. The experiment was carried out in a soundproof environment with an indoor temperature being controlled at 22±1° C. After the experiment was started, the mice were first recorded for free movement within 30 minutes, and then compound 9 or morphine was administered subcutaneously, the movement of the mice was detected for another 150 minutes. Before the experiment for each mouse was started, the whole box was wiped with alcohol as a whole to exclude the residual odor of the previous mouse from affecting the accuracy of the data.
The experimental data were expressed as mean±standard error (Means±S.E.M.), and the data for differences between groups treated with different drugs were analyzed by one-way ANOVA (Bonferroni test in one-way ANOVA) for statistics and analysis, ***P<0.001 represents that there was a significant difference between the movement activity of the drug-treated group and that of the saline group.

[2] = system: male mice of Kunming strain; experiment: Analgesic tolerance test (photothermal tail flick); type: in vivo, mouse
Procedure: The mice were injected with the drug in the lateral ventricle of the mice for six consecutive days or in the subcutaneous of the mice for eight consecutive days, and their analgesic tolerance were detected by photothermal tail flick method, and the pharmacological activity of the compounds of the present invention in analgesic tolerance was further explored.
In male mice of Kunming strain, the drug was injected continuously in the lateral ventricle for six days, once a day, and the effect of continuous injection of drugs on the pain sensation was detected by a photothermal tail flick instrument. The ambient temperature is controlled at 22±1° C., and the experimental animals are free to eat and drink. The test drug was injected into the lateral ventricle of the mouse for 6 consecutive days, 4 μl per injection. The basic tail flick incubation period (3-5 seconds) was measured before the first day of drug injection, and those mice that were too sensitive or dull were discarded. The tail flick incubation period of 5, 10, 15, 20, 30 min after administration on the first and sixth days was recorded in the experiment. To prevent scald on the tail of the mouse, the maximum tail flick incubation period was set as 10 seconds,
In addition, we further studied the tolerance of subcutaneous administration of compound 9 and morphine in the photothermal tail flick test. The ambient temperature is controlled at 22±1° C., and the experimental animals are free to eat and drink. First, the basic tail flick incubation period (3-5 seconds) of the mice was measured before administration, and then compound 9 or morphine was administered subcutaneously for eight consecutive days. The tail flick incubation period of 10, 15 and 20 minutes after daily administration were recorded. To prevent scald on the tail of the mouse, the maximum tail flick incubation period was set as 10 seconds.
The experimental data is expressed by MPE (maximum possible effect), MPE (%)=100×[(pain threshold after administration−basal pain threshold)/(10 seconds−basal pain threshold)]. The analgesic tolerance of the drug was compared using the MPE value at the time of maximum analgesic effect of the drug. MPE data was expressed as mean±standard error (Means±S.E.M.). The difference in the analgesic effect of continuous administration in the lateral ventricle of the mice for six days was statistically analyzed by the paired T test, and the difference in the analgesic effect of subcutaneous continuous administration for eight days was analyzed by One-way analysis of variance (one-way ANOVA's Tukey HSD test) for statistics, and ***P<0.001 indicates a significant difference from the analgesic effect of the drug injected on the first day.

[3] = system: CFA-induced inflammatory pain in mouse; experiment: Analgesic tolerance and cross-tolerance in CFA-induced inflammatory pain; type: in vivo; details: mechanical pain, lateral ventricle 6 days or subcutaneous 7 days
Procedure: CFA-induced inflammatory pain in mouse was detected by an electronic Von Frey tenderness instrument, and the basal pain threshold of normal mice was Firstly determined. Then […] of CFA solution was injected subcutaneously into the mouse paw. After 4 days, the mechanical pain sensitivity value of the injected paw of the mouse was measured. And then compound 9 or morphine was injected for 6 consecutive days (lateral ventricle) or 7 consecutive days (subcutaneously), and the mice in morphine group were given compound 9 on day 7 (lateral ventricle) or day 8 (subcutaneous). The mechanical pain thresholds at different time points after administration were recorded.
(§1) The experimental data were expressed as mean± standard error (Means±S.E.M.). Data for differences between groups treated with the same drug were analyzed by one-way ANOVA (Tukey HSD test of one-way ANOVA) for statistics and analysis, *P<0.05. **P<0.005, ***P<0.001 indicates a significant difference between the mechanical pain threshold of the drug-treated group and the pain threshold after the first day of administration.

[4] = system: mice; experiment: Naloxone withdrawal test; type: in vivo, mouse; details: s.c. at 8 hours intervals 20, 40, 60, 80, 100, 100, 100 mg/kg; naloxone 1 mg/kg; 30 minutes
[5] = system: CCI-induced neuralgia in mouse; experiment: Analgesic tolerance and cross-tolerance in CCI-induced neuralgia; type: in vivo; details: subcutaneous, seven consecutive days
Procedure: CCI-induced neuralgia in mouse was detected using a PL-200 thermal tingling instrument and an electronic Von Frey tenderness instrument. The thermal pain threshold of one group of normal mice and the mechanical pain threshold of another group of normal mice were first determined. The mice were then anesthetized with sodium pentobarbital 80 mg/kg mouse body weight) and the mice were fixed in the prone position. The right sciatic nerve was exposed and 3 mild ligation rings were made around the sciatic nerve using a 4-0 chromic catgut, 1 mm intervals. The ligation intensity is preferably a slight tremor in the right hind leg. On the 10th day after surgery, the thermal pain sensitivity value and mechanical pain sensitivity value of the right hind paw of the two groups of mice were determined. Compound 9 or morphine was then administered subcutaneously for seven consecutive days, and compound 9 was given to mice in the morphine group on day 8. The thermal tingling and mechanical pain thresholds at different time points after administration were recorded.
as §1, with “mean±standard” for “mean± standard”, “**P<0.01,” for “**P<0.005,”, “the” for “the mechanical”, “First” for “first”

[6] = system: gastrointestinal movement of male mice of Kunming strain; experiment: Gastrointestinal movement in vivo (activated carbon suspension); parameters: species or system mouse; details: 10 mg/kg (compound 9 subcutaneous; morphine positive control)
Procedure: Male mice of Kunming strain, weighing 26±2 g. The commonly used toner detection method was used in the detection of astrointestinal movement in vivo. The specific experimental procedure was: before the gastrointestinal movement experiment, the mice were fasted for 16 hours (free drinking during fasting), then the drug was injected through spinal cord or subcutaneously, and after 15 minutes, the activated carbon suspension prepared in advance (a physiological saline suspension containing 5% of activated carbon and 10% gum arabic) was orally perfused into the stomach in a volume of 0.1 ml per 10 g of body weight. After 30 minutes from the perfusion of activated carbon suspension, the animals were sacrificed by cervical dislocation, and then the small intestine of the animal from the pylorus to the cecum was carefully taken out. The total lengths of the small intestine from the pylorus to the cecum and the furthest distance from which the activated carbon suspension moves were measured.
Gastrointestinal movement test results were evaluated by a percentage of gastrointestinal movement, and the percentage of gastrointestinal movement per mouse was calculated by dividing the moving distance of the activated carbon suspension by the total length of the small intestine. The relevant data were expressed as mean of the percentage of gastrointestinal movement±standard error (Means±S.E.M.), the data for differences between groups treated with different drug concentrations were analyzed by one-way ANOVA (Dunnett test in one-way ANOVA) for statistics and analysis, ***P<0.001 represented that there was a significant difference between the percentage of gastrointestinal movement of the drug-treated group and that of the saline group.

[7] = system: mice; experiment: Conditional position preference test (CPP); type: in vivo, mouse; details: subcutaneous 10 mg/kg
Procedure: The conditional position preference experimental device is a closed device (45×20×20 cm) assembled from transparent plexiglass plates. Two 20×20×20 cm conditional preference boxes are located at both ends of the device, with a small compartment 5×20×20 cm having a passage (5×5×5 cm) connected in the middle. On the first day of the experiment, the passage was kept open, the mice was placed into the device for 15 min, and the mice that had been explored for more than 9 min in any of the preference boxes were excluded. […] On day 5, the passage was kept opened again to ensure that the mice were free to enter into the two preference boxes, and the time that the mice stayed in the drug matching preference box within 15 minutes of the total time was recorded.
The experimental relevant data were expressed as mean±standard error (Means±S.E.M.), and the conditional position preference score represents the time spent on the drug matching preference box on day 5 of each mouse minus the time on the first day in this preference box. Differences between groups treated with different drugs in CPP trials were analyzed by one-way ANOVA (Tukey HSD test in one-way ANOVA) for data statistics and analysis.

[8] = system: acute pain caused by photothermal therapy in male mice of Kunming strain; details: mouse tail flick, lateral ventricle; from ZL201210098832.2; cited from earlier work
[9] = system: formalin-induced pain mice; details: lateral ventricle; Br J Pharmacol 2016; cited from earlier work
[10] = lateral ventricle injection, once a day, morphine 4 nmol

Molecule	total distance of movement [1]	analgesic tolerance ([2]; eight consecutive days subcutaneous, 10 mg/kg)	analgesic effect (MPE) after six days of continuous injection [2, 10]	analgesic effect (MPE) on the first day [2, 10]	analgesic tolerance ([2]; six consecutive days lateral ventricle injection, compounds at 3 times ED50, morphine 4 nmol)	analgesic tolerance on continuous injection [3]	average number of jumps after naloxone withdrawal [4]	analgesic tolerance on continuous injection, mechanical pain sensitivity [5]	analgesic tolerance on continuous injection, thermal sensitivity pain [5]	percentage of gastrointestinal movement [6]	conditional positional preference [7]	analgesic ED50 value of BN-9 [8]	analgesic ED50 value of BN-9, formalin first phase pain [9]	analgesic ED50 value of BN-9, formalin second phase pain [9]
CN1CC[C@]23c4c5ccc(O)c4O[C@H]2[C@@H](O)C=C[C@H]3[C@H]1C5 [morphine, reference compound]	439.73 m	significantly reduced from day 4	36.15%	86.97%	can significantly cause analgesia tolerance	significantly reduced from the fourth day	47	from the fourth day	from the third day	16.92%	produced significant conditional positional preference	–	–	–
Tyr-D-Ala-Gly-Phe-Gln-Pro-Gln-Arg-Phe-NH2 (Y[dA]GFQPQRF-NH2) [BN-9]	–	–	–	–	–	–	–	–	–	–	–	0.39 nmol	0.12 nmol	1.14 nmol
